These results are taken from US20160067211A1, “PHARMACEUTICAL COMPOSITION” (Eberhard Karls Universitaet Tuebingen Medizinische Fakultaet, priority 2013, published 2016).

The subject of assay [1] is angiogenesis induced by basic fibroblast growth factor and vascular endothelial growth factor. The settings on record: induced by bFGF and VEGF, three-dimensional collagen gel in vitro; cited from earlier work.
In a further assay the test system is BLM melanoma cells. The assay can be described thus: PI/Annexin V staining FACS, BLM. The settings on record: 100 μM; for annexin V positive (apoptotic) cells: DMSO control 4.1%; for PI positive (nectrotic) cells: DMSO control 9.1%. It counts as cell-based, human. As for the experimental part: (§1) (A) Cell cycle FACS analyses of PI stained BLM and SK-MEL-28 melanoma cells. 100 μM of 8-PN-induced a G2 arrest in both cells. (B) FACS analyses of BLM and SK-MEL-28 melanoma cells treated with 100 μM 6-PN or 8-PN and stained for annexin V/PI; staurosporin was used as control for apoptosis induction and DMSO as vehicle control. […] (C) BLM and SK-MEL-28 melanoma cells were treated with 100 μM of PNs; TSA, SAHA and EMSO were used as controls.
To further analyze the possibility of apoptosis induction, an extensive apoptosis assay was performed on SK-MEL-28 melanoma cells 4 hours after treatment with 100 μM 6-PN or 8-PN (FIG. 9). […] This was verified by FACS cell cycle analyses to screen for a possible increase of the sub-G1 fraction of cells (apoptotic cells) or for the induction of a G2 arrest (inhibition of proliferation). […] To further differentiate between the induction of apoptosis and/or necrosis an PI/Annexin V staining of SK-MEL-28 and BLM cells was performed 4 hours and 24 hours after the treatment with 6-PN or 8-PN; 10 μM staurosporin (6 hours treatment) was used as positive control for the induction of apoptosis; DMSO treatment was used as vehicle control. The cells were then analyzed by FACS.

Assay [2] deals with cleaved caspase-3 in SK-MEL-28 melanoma cells. The assay can be described thus: Western blot for cleaved caspase-3. It counts as cell-based, human. To be noted: SK-MEL-28, 100 μM. As to the method: Western blot analysis of SK-MEL-28 melanoma cells treated with 100 μM of 6-PN, 8-PN, SAHA or TSA. EtOH and DMSO were applied as controls.
(§2) The following antibodies were used: Anti-Vinculin and Anti-Actin (1:5000, Sigma-Aldrich), Anti-Acetyl-Histon H3 (1:5000, Millipore, Billerica, USA), Anti-Caspase-3 (1:1000), Anti-AKT, Anti-pAKT, Anti-ERK, Anti-pERK, […], Anti-p70S6 Kinase, and Anti-pS6 protein (1:1000), all from Cell Signaling, Frankfurt, Germany), Anti-LC3 (1:5000, Sigma-Aldrich).
To further analyze the type of cell death induced by 6-PN and 8-PN, western blot analyses of SK-MEL-28 melanoma cells were performed 1, 2, 4, 12 and 24 hours after the treatment with 100 μM 6-PN and 8-PN. […] Upon PN treatment an inconsistent expression of oncogenic AKT and phospho-AKT (pAKT) was detected. […] Thus, there was an obvious discrepancy between the expression of pAKT and pS6P. Therefore it was first also looked for the expression of P70S6 kinase and its phosphorylated form. […] Therefore it was next asked whether the S6P could be phosphorylated by a different mechanism. In this respect, activated ERK can phosphorylate the p90 ribosomal S6 kinase (pP90). pP90 also phosphorylates the S6P (in addition to the P70S6 kinase). Since the pP70S6 kinase was absent in the used cells (SK-MEL-28 and BLM), it was hypothesized that the phosphorylation of the S6P was conducted via the pERK/pP90 pathway, independent from the P70S6 signalling. This hypothesis was supported by the parallel down-regulation of the bands for pP90 (Thr359/Ser363) and pS6P 12 hours after the treatment with 6-PN, and the reappearance of both bands after 24 hours (FIG. 8). […] The western blot experiments were repeated with BLM cells under the same treatment conditions and yielded similar results (not shown).
(A western blot detects proteins with antibodies after separation by electrophoresis.)

Assay [3] has as its system LC3 in SK-MEL-28 melanoma cells. Kind of assay: Western blot LC3 (autophagy), SK-MEL-28. The settings on record: SK-MEL-28, 100 μM, after 12-24 hours. The class given is cell-based, human. As for the experimental part:
as §1, §2
Since it has been speculated that the formation of intracytoplasmic vacuoles in pancreatic or breast cancer cells by 6-PN and 8-PN observed in pervious studies might represent an induction of autophagy, this issue was further investigated on a molecular level. BLM and SK-MEL-28 melanoma cells were treated with 100 μM of 6-PN, 8-PN, SAHA or TSA (and with DMSO as control), and the treated cells were lysed for protein extraction after 1 hour, 2 hours, 4 hours, 12 hours and 24 hours. […]

With `CC(C)=CCc1c(O)cc(O)c2c1OC(c1ccc(O)cc1)CC2=O` (stereo not shown) [8-PN, 5,7-Dihydroxy-2-(4-hydroxy-phenyl)-8-(3-methyl-but-2-enyl)-chroman-4-one], the angiogenesis result in assay [1] is “inhibits the angiogenesis”. In addition, the “annexin V positive (apoptotic) cells” value with BLM melanoma cells (4 hours) amounted to 1.2%; in the assay on BLM melanoma cells (24 hours) it was 5.9%. Further, the “PI positive (nectrotic) cells” value in the assay on BLM melanoma cells (4 hours) is given as 27%; in the assay on BLM melanoma cells (24 hours), 22.4%. In assay [2], the “band for cleaved caspase-3” value is on record as “no additional band”. Moreover, in assay [3], the “shift from LC3-I to LC3-II (autophagy)” value is recorded as “clearly induced the shift”.
